Read-outs that look alike come from different tables or passages of the source.
Molecular target: full-length human PRMT8 isoform 1 (Homo sapiens, UniProt Q9NR22)
Assay: PRMT8 Biochemical Assay (3H-SAM Flashplate, peptide substrate)
Details: read-out: Biochemical IC50 PRMT8
Source text: General Materials. S-adenosylmethionine (SAM), S-adenosylhomocysteine (SAH), bicine, Tween20, dimethylsulfoxide (DMSO), bovine skin gelatin (BSG), isopropyl-β-D-thiogalactopyranoside (IPTG), and Tris(2-carboxyethyl)phosphine hydrochloride solution (TCEP) were purchased from Sigma-Aldrich at the highest level of purity possible. ^3H-SAM was purchase from American Radiolabeled Chemicals with a specific activity of 80 Ci/mmol. 384-well streptavidin Flashplates were purchased from PerkinElmer.
Substrates. Peptide representative of human histone H4 residues 31-45 was synthesized with an N-terminal linker-affinity tag motif and a C-terminal amide cap by 21st Century Biochemicals. The peptide was purified by high-performance liquid chromatography (HPLC) to greater than 95% purity and confirmed by liquid chromatography mass spectrometry (LC-MS). The sequence was Biot-Ahx-[…]-amide (SEQ ID NO.:8).
The resulting construct encodes an N-terminal GST tag and a thrombin cleavage sequence ([…] […] […] […] SPEF) (SEQ ID NO.:9) fused directly to Met 1 of PRMT8.
Protein Expression. E. coli (BL21(DE3) Gold, Stratagene) made competent by the CaCl2) method were transformed with the PRMT8 construct and ampicillin selection. Protein over-expression was accomplished by growing the PRMT8 expressing E. coli clone and inducing expression with 0.3 mM IPTG at 16° C. The culture was grown for 12 hours, harvested by centrifugation, and stored at −80° C. for purification.
Protein Purification. […] GST-tagged PRMT8 was eluted with 50 mM Tris, 2 mM glutathione, pH 7.8. Pooled fractions were cleaved by thrombin (10U) and dialysed in buffer A. GST was removed by reloading the cleaved protein sample onto glutathione sepharose column and PRMT8 was collected in the flow-through fractions. PRMT8 was purified further by ceramic hydroxyapatite chromatography. The column was washed with 50 mM phosphate buffer, 100 mM NaCl, 5% glycerol, 5 mM β-mercaptoethanol, pH 7.8 and PRMT8 was eluted by 100 mM phosphate in the same buffer. Protein was concentrated and buffer was exchanged to 50 mM Tris, 300 mM NaCl, 10% glycerol, 5 mM β-mercaptoethanol, pH 7.8 by ultrafiltration. The purity of recovered protein was 89%.
General Procedure for PRMT8 Enzyme Assays on Peptide Substrates. The assays were all performed in a buffer consisting of 20 mM Bicine (pH=7.6), 1 mM TCEP, 0.005% BSG, and 0.002% Tween 20, prepared on the day of use. Compounds in 100% DMSO (1 ul) were spotted into a polypropylene 384-well V-bottom plates (Greiner) using a Platemate Plus outfitted with a 384-channel head (Thermo Scientific). DMSO (1 ul) was added to Columns 11, 12, 23, 24, rows A-H for the maximum signal control and 1 ul of SAH, a known product and inhibitor of PRMT8, was added to columns 11, 12, 23, 24, rows I-P for the minimum signal control. A cocktail (40 ul) containing the PRMT8 enzyme was added by Multidrop Combi (Thermo-Fisher). The compounds were allowed to incubate with PRMT8 for 30 min at room temperature, then a cocktail (10 ul) containing ^3H-SAM and peptide was added to initiate the reaction (final volume=51 ul). The final concentrations of the components were as follows: PRMT8 was 1.5 nM, ^3H-SAM was 50 nM, non-radiolabeled SAM was 550 nM, peptide was 150 nM, SAH in the minimum signal control wells was 1 mM, and the DMSO concentration was 2%. The assays were stopped by the addition of non-radiolabeled SAM (10 ul) to a final concentration of 400 uM, which dilutes the ^3H-SAM to a level where its incorporation into the peptide substrate is no longer detectable. 50 ul of the reaction in the 384-well polypropylene plate was then transferred to a 384-well Flashplate and the biotinylated peptides were allowed to bind to the streptavidin surface for at least 1 hour before being washed once with 0.1% Tween20 in a Biotek ELx405 plate washer. […]

[1] = single experiment or average of multiple experiments

full-length human PRMT8 isoform 1, sequence (Q9NR22 whole entry, canonical isoform): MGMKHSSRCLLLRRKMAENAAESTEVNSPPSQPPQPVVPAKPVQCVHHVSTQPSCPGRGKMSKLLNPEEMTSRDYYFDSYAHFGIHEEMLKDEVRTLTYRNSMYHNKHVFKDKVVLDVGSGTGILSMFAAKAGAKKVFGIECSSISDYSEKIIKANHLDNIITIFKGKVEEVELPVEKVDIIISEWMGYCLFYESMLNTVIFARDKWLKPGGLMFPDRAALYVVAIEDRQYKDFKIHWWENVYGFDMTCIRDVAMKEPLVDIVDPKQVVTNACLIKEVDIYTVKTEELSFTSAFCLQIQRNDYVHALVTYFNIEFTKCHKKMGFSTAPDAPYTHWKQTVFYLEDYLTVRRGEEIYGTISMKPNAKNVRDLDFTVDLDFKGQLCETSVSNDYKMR

SMILES	IC50 [nM]	IC50 [1] [nM]
CNCCN(C)Cc1c[nH]nc1C1CCC(OCCOc2ccccc2)CC1 (stereo not drawn) [Compound 136]	< 100	6.8
CNCCN(C)Cc1c[nH]nc1C1CCC2(CC1)CCC(F)(F)CC2 [Compound 130]	< 100	4.5
CNCCN(C)Cc1c[nH]nc1C1CCC2(CC1)OCCO2 [Compound 177]	101 to 1000	150
CNCCN(C)Cc1c[nH]nc1C1CCC(=O)N(CCC(C)C)C1 (stereo not drawn) [Compound 117]	101 to 1000	143
CNCCN(C)Cc1c[nH]nc1C1CCC(N(CC(C)C)C(=O)CC2CCOCC2)CC1 (stereo not drawn) [Compound 114]	101 to 1000	340
CNCCN(C)Cc1c[nH]nc1C1CCC(CC(C)C)CC1 (stereo not drawn) [Compound 169]	< 100	10.2
CNCCN(C)Cc1c[nH]nc1C1CC(C)OC(C)C1 (stereo not drawn) [Compound 179]	< 100	57.3
CNCCN(C)Cc1c[nH]nc1[C@H]1CC[C@@]2(CCN(Cc3ccc(F)cc3)C2=O)CC1 [Compound 125]	< 100	9
CNCCN(C)Cc1c[nH]nc1[C@H]1CC[C@@]2(CCOC2(C)C)CC1 [Compound 106, Methyl [2-(methylamino)ethyl]([3-[(5R,8R)-1,1-dimethyl-2-oxaspiro[4.5]decan-8-yl]-1H-pyrazol-4-yl]methyl)amine]	< 100	14.5
CNCCN(C)Cc1c[nH]nc1[C@H]1CC[C@@]2(CCN(Cc3ccccc3)C2=O)CC1 [Compound 127]	< 100	47.8
CNCCN(C)Cc1c[nH]nc1C1CCC2(CC1)CCN(CCC(C)C)C2=O (stereo not drawn) [Compound 163]	< 100	15.8
CNCCN(C)Cc1c[nH]nc1[C@H]1CC[C@@H](COC)CC1 [Compound 166]	< 100	23
CNCCN(C)Cc1c[nH]nc1[C@H]1CC[C@@]2(CCN(Cc3ccc(OCCOC)cc3)C2=O)CC1 [Compound 120]	< 100	25.1
CNCCN(C)Cc1c[nH]nc1[C@H]1CC[C@@]2(CCN(Cc3cc(F)cc(F)c3)C2=O)CC1 [Compound 126]	< 100	6.5
CNCCN(C)Cc1c[nH]nc1C1CC(OCC(C)C)CC(OCC(C)C)C1 (stereo not drawn) [Compound 122]	3010 to 10000	8370
CNCCN(C)Cc1c[nH]nc1[C@H]1CC[C@]2(CCN(CC(C)C)C2=O)CC1 [Compound 124]	< 100	10.8
CCOCC1CC(COCC)CC(c2n[nH]cc2CN(C)CCNC)C1 (stereo not drawn) [Compound 119]	101 to 1000	728
CNCCN(C)Cc1c[nH]nc1[C@H]1CC[C@@H](O)C2(CCCCC2)C1 (single isomer, unassigned) [Compound 183]	< 100	39.4
CNCCN(C)Cc1c[nH]nc1C1CCCC(COCCOC)C1 (stereo not drawn) [Compound 112]	< 100	69.2
CNCCN(C)Cc1c[nH]nc1[C@H]1CC[C@H](O)C2(CCCCC2)C1 (racemic) [Compound 184, (1S,4S)-4-[4-({methyl[2-(methylamino)ethyl]amino}methyl)-1H-pyrazol-3-yl] spiro[5.5]undecan-1-ol]	< 100	47.3
CNCCN(C)Cc1c[nH]nc1C1CC(OC(C)C)CC(OC(C)C)C1 (stereo not drawn) [Compound 118]	> 10000	> 10000
CNCCN(C)Cc1c[nH]nc1C1CCC2(CCOCC2)CC1 [Compound 178]	< 100	20.5
CNCCN(C)Cc1c[nH]nc1C1CCC2(CC1)CC2 [Compound 144]	< 100	78.4
CNCCN(C)Cc1c[nH]nc1C1CCC2(CC1)OC(C)CC(C)O2 (stereo not drawn) [Compound 121]	< 100	32.6

SMILES	IC50 [nM]	IC50 [1] [nM]
CNCCN(C)Cc1c[nH]nc1C1CC(COC)CC(COC)C1 (stereo not drawn) [Compound 138]	1010 to 3000	1430
CNCCN(C)Cc1c[nH]nc1[C@H]1CC[C@@]2(CCN(CC(C)C)C2=O)CC1 [Compound 129]	< 100	83.7
CNCCN(C)Cc1c[nH]nc1[C@H]1CC[C@H](OCCOc2ccccc2)CC1 [Compound 187]	101 to 1000	185
CNCCN(C)Cc1c[nH]nc1C1CCC2(CC1)NC(=O)NC2=O (stereo not drawn) [Compound 175]	< 100	29.6
CCOC1CC(OCC)CC(c2n[nH]cc2CN(C)CCNC)C1 (stereo not drawn) [Compound 132]	3010 to 10000	4330
CNCCN(C)Cc1c[nH]nc1[C@H]1CC[C@@]2(CCCO2)CC1 [Compound 143]	< 100	33
CNCCN(C)Cc1c[nH]nc1[C@H]1CC[C@]2(CCN(Cc3ccc(OCCOC)cc3)C2=O)CC1 [Compound 111]	< 100	59.9
CNCCN(C)Cc1c[nH]nc1C1CCC2(CC1)CC(=O)N(CCC(C)C)C2 (stereo not drawn) [Compound 165]	< 100	18.1
CNCCN(C)Cc1c[nH]nc1C1CCC(O)C2(CCCC2)C1 (stereo not drawn) [Compound 182, 9-[4-({methyl[2-(methylamino)ethyl]amino}methyl)-1H-pyrazol-3-yl]spiro[4.5]decan-6-ol]	< 100	32.3
CCOC1CC2(CCC(c3n[nH]cc3CN(C)CCNC)CC2)CC1OCC (stereo not drawn) [Compound 168]	< 100	28.1
CNCCN(C)Cc1c[nH]nc1[C@H]1CC[C@H](OC2CCCCC2)CC1 [Compound 139]	101 to 1000	116
CNCCN(C)Cc1c[nH]nc1[C@H]1CC[C@@H](N(CC2CCOCC2)C(=O)CC(C)C)CC1 [Compound 107]	< 100	55.4
CNCCN(C)Cc1c[nH]nc1[C@H]1CC[C@H](COC)CC1 [Compound 167]	< 100	13
CNCCN(C)Cc1c[nH]nc1C1CCC(=O)N(CCc2ccccc2)C1 (stereo not drawn) [Compound 110]	< 100	42.9
CNCCN(C)Cc1c[nH]nc1C1CCC(=O)N(Cc2ccccc2)C1 (stereo not drawn) [Compound 115]	101 to 1000	196
CCC(=O)N(CC1CCOCC1)[C@H]1CC[C@@H](c2n[nH]cc2CN(C)CCNC)CC1 [Compound 108]	101 to 1000	252
CNCCN(C)Cc1c[nH]nc1C1CCC2(CC1)CCN(CC(C)C)C2=O (stereo not drawn) [Compound 164]	< 100	19.1
CCN1C(=O)N(C)CC12CCC(c1n[nH]cc1CN(C)CCNC)CC2 (stereo not drawn) [Compound 162]	< 100	92.7
CNCCN(C)Cc1c[nH]nc1[C@H]1CC[C@]2(CCOC2)CC1 [Compound 142]	< 100	15.9
CNCCN(C)Cc1c[nH]nc1C1CCC2(CCCCO2)CC1 (stereo not drawn) [Compound 137]	< 100	16.2
CNCCN(C)Cc1c[nH]nc1C1CCCC(COCCC(O)CO)C1 (stereo not drawn) [Compound 113]	101 to 1000	119
CNCCN(C)Cc1c[nH]nc1[C@H]1CC[C@]2(CCC(C)(C)O2)CC1 [Compound 104]	< 100	11.6
CNCCN(C)Cc1c[nH]nc1C1CCC(C)(C)C(O)C1 (stereo not drawn) [Compound 185, 2,2-dimethyl-5-[4-({methyl[2-(methylamino)ethyl]amino}methyl)-1H-pyrazol-3-yl]cyclohexan-1-ol]	< 100	24.4
CNCCN(C)Cc1c[nH]nc1[C@H]1CC[C@@H](OC2CCCCC2)CC1 [Compound 140]	< 100	33.9

— patent publication US11512053B2, “Arginine methyltransferase inhibitors and uses thereof” (priority 2013, dated 2022)
